Counter-ions that a name gives are not always drawn.
How the values were obtained:
Humanthrombozyten = test: Inhibition of the binding of ³H-BIBU 52 to human platelets (fibrinogen binding test); details: displacement of ³H-BIBU 52 (5 nM) from human platelets in plasma, 20 min at room temperature; read-out: Fibrinogen-Bindungstest IC₅₀
Source text: 1. Hemmung der Bindung von ³H-BIBU 52 an Humanthrombozyten:
Eine Suspension von Humanthrombozyten in Plasma wird mit ³H-BIBU 52 [= (3S,5S)-5-[(4'-Amidino-4-biphenylyl)oxymethyl]-3-[(carboxyl)methyl]-2-pyrrolidinon[3-³H-4-biphenylyl]], das den literaturbekannten Liganden ¹²⁵J-Fibrinogen ersetzt, (siehe deutsche Patentanmeldung P 42 14 245.8 der gleichen Anmelderin vom 30. 04. 1992, internes Zeichen: Case 5/1093-FL) und verschiedenen Konzentrationen der zu testenden Substanz inkubiert. Der freie und gebundene Ligand wird durch Zentrifugation getrennt und durch Szintillationszählung quantitativ bestimmt. Aus den Meßwerten wird die Hemmung der ³H-BIBU 52-Bindung durch die Testsubstanz bestimmt.
Hierzu wird aus einer Antikubitalvene Spenderblut entnommen und mit Trinatriumzitrat antikoaguliert (Endkonzentration 13 mM). Das Blut wird 10 Minuten bei 170 x g zentrifugiert und das überstehende plättchenreiche Plasma (PRP) abgenommen. Das Restblut wird zur Gewinnung von Plasma noch einmal scharf abzentrifugiert. Das PRP wird mit autologem Plasma 1:10 verdünnt. 750 ml werden mit 50 ml physiologischer Kochsalzlösung, 100 ml Testsubstanzlösung, 50 ml ¹⁴C-Sucrose (3.700 Bq) und 50 ml ³H-BIBU 52 (Endkonzentration: 5 nM) bei Raumtemperatur 20 Minuten inkubiert. Zur Messung der unspezifischen Bindung wird anstelle der Testsubstanz 5 ml BIBU 52 (Endkonzentration: […]) eingesetzt. Die Proben werden 20 Sekunden bei 10000 x g zentrifugiert und der Überstand abgezogen. 100 ml hiervon werden zur Bestimmung des freien Liganden gemessen. Das Pellet wird in 500 ml 0,2N NaOH gelöst, 450 ml werden mit 2 ml Szintillator und 25 ml 5N HCl versetzt und gemessen. Das im Pellet noch verbliebene Restplasma wird aus dem ¹⁴C-Gehalt bestimmt, der gebundene Ligand aus der ³H-Messung. Nach Abzug der unspezifischen Bindung wird die Pelletaktivität gegen die Konzentration der Testsubstanz aufgetragen und die Konzentration für eine 50%ige Hemmung der Bindung ermittelt.

Thrombozytenaggregation = test: Collagen-induced platelet aggregation in platelet-rich plasma (method of Born and Cross); format: cell-based; details: human platelet-rich plasma, 10 min preincubation at 37°C, 50% change of optical density, read-out: Hemmung der Plättchenaggregation EC₅₀
Source text: 2. Antithrombotische Wirkung
Die Thrombozytenaggregation wird nach der Methode von Born und Cross (J. Physiol. 170, 397 (1964)) in plättchenreichem Plasma gesunder Versuchspersonen gemessen. Zur Gerinnungshemmung wird das Blut mit Natriumcitrat 3,14 % im Volumenverhältnis 1:10 versetzt.
Collagen-induzierte Aggregation
Der Verlauf der Abnahme der optischen Dichte der Plättchensuspension wird nach Zugabe der aggregationsauslösenden Substanz photometrisch gemessen und registriert. Aus dem Neigungswinkel der Dichtekurve wird auf die Aggregationsgeschwindigkeit geschlossen. Der Punkt der Kurve, bei dem die größte Lichtdurchlässigkeit vorliegt, dient zur Berechnung der "optical density".
Die Collagen-Menge wird möglichst gering gewählt, aber doch so, daß sich eine irreversibel verlaufende Reaktionskurve ergibt. Verwendet wird das handelsübliche Collagen der Firma Hormonchemie, München.
Vor der Collagen-Zugabe wird das Plasma jeweils 10 Minuten mit der Substanz bei 37°C inkubiert.
Aus den erhaltenen Meßzahlen wird graphisch eine EC₅₀ bestimmt, die sich auf eine 50%ige Änderung der "optical density" im Sinne einer Aggregationshemmung bezieht.

Maus = test: Tolerability after intravenous administration to the mouse; format: in vivo; details: 30 mg/kg intravenous, 3 animals tested

| Structure (SMILES) | IC50 (Humanthrombozyten) [µM] | EC50 (Thrombozytenaggregation) [µM] | Mortality (verstorbene Tiere) (Maus) |
| --- | --- | --- | --- |
| O=C(N[C@H]1CC[C@H](C(=O)O)CC1)c1ccc(CCC23CCN(CC2)CC3)cc1 [1(2), trans-4-[4-[2-(4-Chinuclidinyl)-ethyl]-benzoylamino]-cyclohexancarbonsäure] | – | – | keines der 3 getesteten Tiere verstarb |
| O=C(O)CN(CCNC(=O)N1CCC(OCC2CCNCC2)CC1)CC(=O)O [1(14), N-Carboxymethyl-N-[2-[[4-[(4-piperidinyl)-methyloxy]-1-piperidinyl]-carbonylamino]-ethyl]-glycin] | 6.9 | 23 | – |
| O=C(O)CCC1CCN(C(=O)c2ccc(NCC3CCNCC3)cc2)CC1 [3(7), 4-(2-Carboxy-ethyl)-1-[4-[[(4-piperidinyl)-methyl]-amino]-benzoyl]-piperidin-hydrochlorid] | 49 | 45 | – |
| O=C(O)CC1CCN(C(=O)c2ccc(NCC3CCNCC3)cc2)CC1 [3(8), 4-Carboxymethyl-1-[4-[[(4-piperidinyl)-methyl]-amino]-benzoyl]-piperidin-hydrochlorid] | 6.4 | 5.8 | – |
| O=C(N[C@H]1CC[C@H](C(=O)O)CC1)c1ccc(NC(=O)C2CCNCC2)cc1 [3(9), trans-4-[4-[(4-Piperidinyl)-carbonylamino]-benzoylamino]-cyclohexancarbonsäure-hydrochlorid] | 2.3 | 3.2 | – |
| O=C(N[C@H]1CC[C@H](C(=O)O)CC1)N1CCC(OCC2CCNCC2)CC1 [3(17), trans-4-[[4-[(4-Piperidinyl)-methyloxy]-1-piperidinyl]-carbonylamino]-cyclohexancarbonsäure] | 0.091 | 0.3 | keines der 3 getesteten Tiere verstarb |
| NCC1CCc2cc(C(=O)N[C@H]3CC[C@H](CCC(=O)O)CC3)ccc2C1 (stereo partly drawn) [3(24), 3-[trans-4-[(2-Aminomethyl-1,2,3,4-tetrahydro-6-naphthyl)-carbonylamino]-cyclohexyl]-propionsäure-hydrochlorid] | 1.5 | 4.41 | – |
| COC(=O)[C@H]1CC[C@H](NC(=O)N2CCC(OCC3CCNCC3)CC2)CC1 [4(23), trans-4-[[4-[(4-Piperidinyl)-methyloxy]-1-piperidinyl]-carbonylamino]-cyclohexancarbonsäure-methylester-hydrochlorid] | 0.18 | 0.37 | keines der 3 getesteten Tiere verstarb |
| NCCOc1ccc(C(=O)N[C@H]2CC[C@H](OCC(=O)O)CC2)cc1 [4(34)] | 0.84 | 3.37 | – |
| O=C(N[C@H]1CC[C@H](C(=O)O)CC1)c1ccc(OCC23CCN(CC2)CC3)cc1 [Beispiel 3, trans-4-[4-[(4-Chinuclidinyl)-methyloxy]-benzoylamino]-cyclohexancarbonsäure-hydrochlorid] | 0.085 | 0.36 | keines der 3 getesteten Tiere verstarb |

The remaining compounds from weak to strong by EC50 (Thrombozytenaggregation), led by results:

| IC50 (Humanthrombozyten) [µM] | EC50 (Thrombozytenaggregation) [µM] | Structure (SMILES) | Mortality (verstorbene Tiere) (Maus) |
| --- | --- | --- | --- |
| 1.5 | 3.1 | CCCCS(=O)(=O)NC1(C(=O)O)CCC(NC(=O)N2CCC(OCC3CCNCC3)CC2)CC1 (stereo not drawn) [1(7), N-[1-Carboxy-cis-4-[[4-[(4-piperidinyl)-methyloxy]-1-piperidinyl]-carbonylamino]-cyclohexyl]-n-butansulfonamid] | – |
| 2.1 | 2.06 | O=C(NC1CCNCC1)c1ccc(C(=O)N[C@H]2CC[C@H](C(=O)O)CC2)cc1 [3(4), trans-4-[4-[(4-Piperidinyl)-aminocarbonyl]-benzoylamino]-cyclohexancarbonsäure-hydrochlorid] | – |
| 0.55 | 1.7 | O=C(N[C@H]1CC[C@H](C(=O)O)CC1)c1cccc(CCC23CCN(CC2)CC3)c1 [Beispiel 1, trans-4-[3-[2-(4-Chinuclidinyl)-ethyl]-benzoylamino]-cyclohexancarbonsäure] | – |
| 0.13 | 1.3 | NC1(C(=O)O)CCC(NC(=O)N2CCC(OCC3CCNCC3)CC2)CC1 (stereo not drawn) [1(9), 1-Carboxy-cis-4-[[4-[(4-piperidinyl)-methyloxy]-1-piperidinyl]-carbonylamino]-cyclohexylamin] | – |
| 0.63 | 1.2 | O=C(N[C@H]1CC[C@H](C(=O)O)CC1)c1cccc(OCC2CCNCC2)c1 [3(15), trans-4-[3-[(4-Piperidinyl)-methyloxy]-benzoylamino]-cyclohexancarbonsäure-hydrochlorid] | – |
| – | 1.2 | NCCc1ccc(C(=O)N[C@H]2CC[C@H](CCC(=O)O)CC2)cc1 [3(32), trans-1-[4-(2-Amino-ethyl)-benzoylamino]-4-(2-carboxyethyl)-cyclohexan-hydrochlorid] | – |
| 1.2 | 1.07 | O=C(N[C@H]1CC[C@H](C(=O)O)CC1)c1ccc(CCc2ccncc2)cc1 [3(30), trans-4-[4-[2-(4-Pyridyl)-ethyl]-benzoylamino]-cyclohexan-carbonsäure-hydrochlorid] | – |
| 0.13 | 0.97 | NCCOc1ccc(C(=O)N[C@H]2CC[C@H](CCC(=O)O)CC2)cc1 [4(32)] | – |
| 0.36 | 0.61 | O=C(O)CC1CCN(C(=O)c2ccc(CCC34CCN(CC3)CC4)cc2)CC1 [1(1), 4-Carboxymethyl-1-[4-[2-(4-chinuclidinyl)-ethyl]-benzoyl]-piperidin] | – |
| 0.16 | 0.27 | O=C(N[C@H]1CC[C@H](C(=O)O)CC1)N1CCC(COC2CCNCC2)CC1 [3(16), trans-4-[[4-[(4-Piperidinyl)-oxymethyl]-1-piperidinyl]-carbonylamino]-cyclohexancarbonsäure-hydrochlorid] | – |
| 0.19 | 0.27 | O=C(N[C@H]1CC[C@H](C(=O)O)CC1)c1ccc(OCC2CCNCC2)cc1 [3(23), trans-4-[4-[(4-Piperidinyl)-methyloxy]-benzoylamino]-cyclohexancarbonsäure-hydrochlorid] | – |

— patent EP0638553A1, “Carboxylic acid amides having a terminal carboxylic acid group as aggregation inhibiting drugs” (Dr. Karl Thomae GmbH, priority 1993, dated 1995)
